Assay [1] has as its system CD8+ and CD4+ T cells (autologous CD3+ Pan-T cells isolated from human normal PBMCs). The assay is described as follows: Exogenous autologous normal donor restimulation assay (15-mer overlapping peptide pools on CD1c+ dendritic cells, TNFα/IFNγ flow cytometry). The class given is cell-based. To be noted: Table 25, 15-mer overlapping peptide pool; for Maximum Fold Change Over Background CD4+ cells: TNFα+IFNγ+ CD4+ T cells; for Maximum Fold Change Over Background CD4+ cells / Maximum Fold Change Over Background CD8+ cells: highest fold change over negative control across normal donors; for Maximum Fold Change Over Background CD8+ cells: TNFα+IFNγ+ CD8+ T cells; for Maximum Frequency of TNFα/IFNγ Double Positive CD4+ T cells / Maximum Frequency of TNFα/IFNγ Double Positive CD8+ T cells: highest frequency across normal donors. Put shortly:
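Autologous CD3+ Pan-T cells from normal donors were co-cultured 12 days with irradiated CD1c+ DCs pulsed with 15-mer overlapping neoantigen peptide pools at 2.5–10 μg/mL, with IL-15 and IL-2 support. Cells were restimulated on day 11, then TNFα/IFNγ double-positive CD8+ and CD4+ frequencies read by flow. Positive means ≥3-fold over DMSO and ≥0.01%.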

Assay [2] shares this test system. Description: Endogenous autologous normal donor restimulation assay (Ad5-transduced CD1c+ dendritic cells, TNFα/IFNγ flow cytometry). The format is cell-based. The conditions noted are these: Table 27, endogenous expression, peptide pool restimulation, highest across sixteen normal donors. As to the method: CD1c+ Dendritic Cells (DC) isolated from human normal PBMCs were thawed using media (IMDM (Gibco) supplemented with glutamine, HEPES, 5% human serum (Sigma), and 1×Pen-Strep). DC cells were resuspended in media supplemented with IL-4 (Peprotech, 80 ng/mL) and GM-CSF (Gibco, 80 ng/mL), plated in 6 well microplates, and rested overnight at 37° C. (5% CO2). The following day, DC cells were counted and plated in a 96 well round bottom microplate at a concentration of 30,000 viable cells per well. Ad5 vectors (Vector Biolabs) were dilute in media to an MOI (Multiplicity Of Infection) of 5000 based on Plaque Forming Units. Ad5 vectors for the CEF pool and a “null” were used as controls. DCs were transduced with Ad5 vectors overnight at 37° C. (5% CO2). The following day, the Ad5 vectors were washed off the plate by three sequential centrifugation/aspiration steps using sterile Phosphate Buffered Saline. After the final wash, transduced DCs were resuspended in 100 μL media. Autologous CD3+ Pan-T cells isolated from human normal PBMCs were thawed using media. Pan-T cells were added to the irradiated DCs at 300,000 viable cells per well (100 μL/well). Human IL-15 (Peprotech) was added to all wells at final concentration of 10 ng/mL.
Plates were incubated at 37° C. (5% CO2) for a total of 12 days. Media was refreshed every 2-3 days with IL-15 (10 ng/mL final concentration) and IL-2 (R&D systems, 10 IU/mL final concentration). On day 11 lyophilized peptides (15-mer overlapping peptides) were solubilized in 100% DMSO and pooled by neoantigen to between 5 mg/mL and 20 mg/mL. Neoantigen peptides pools were added to cells for a final concentration of 2.5 μg/mL to 10 μg/mL. CEF Peptide Pool “Plus” (Cellular Technologies, Ltd.) was utilized as a positive control and DMSO at the same final concentration as the experimental peptides was utilized as a negative control. Protein Inhibitor Cocktail (eBioscience) was added to every well and plate was incubated overnight at 37° C. (5% CO2).
On day 12, cells were stained for intracellular flow cytometry analysis. The cells were washed with PBS and stained with Live/Dead Fixable Aqua Dead Cell stain (Thermo-Fisher). Following the live/dead stain, cells were blocked using Biotin-Free Fc Receptor Blocker (Accurate Chemical & Scientific Corp). Extracellular cellular flow panel ([…] per well in 50 μL) consisted of CD3 PerCP-Cy5.5 (Biolegend), CD4 BV421 (Biolegend), and CD8 APC-Cy7 (Biolegend). After extracellular staining, cells were fixed using Foxp3/fTranscription Factor Staining Buffer Set (eBioscience) and stained for intracellular proteins (1:50 dilution) using TNFα FITC (R&D Systems) and IFNγ BV785 (Biolegend). Cells were washed and resuspended in stain buffer and analyzed using a BD Celesta flow cytometer.
Flow cytometry cell staining analysis was completed using FlowJo v10. Cells were gated on live, singlet, CD3+ cells. The CD8+ and CD4+ T cells were analyzed for TNFα/IFNγ expression and the frequency of double positive TNFα/IFNγ CD8+ and the frequency of double positive TNFα/IFNγ CD4+ T cells were recorded. Responses were assessed to be positive when the frequency of double positive TNFα/IFNγ CD8+ or TNFα/IFNγ CD4+ T cells due to stimulation with an experimental peptide pool was increased greater than or equal to 3-fold over the DMSO only negative control for that donor and at least 0.01%.
For three of the neoantigens, an Ad5 vector was designed to transduce normal Dendritic cells with the neoantigens. This assay assessed the ability of the endogenously expressed and presented neoantigens to activate autologous T cells following overlapping 15-mer peptide pools restimulation using the endogenous autologous normal donor restimulation assay described in Example 1 utilizing TNFα and IFNγ production by CD8^+ and CD4^+ T cells as a readout. […] Sixteen donors were used to assess endogenous immunogenicity.

This is an account of results in patent US12295997B2, “Prostate neoantigens and their uses” (Janssen Biotech, Inc., priority 2020, dated 2025).

“WKFEMSYTVGGPPPHVHARPRHWKTDR (listed as Homo sapiens) [AS18, NWD1 alternative splicing]”: in assay [1], the “Maximum Fold Change Over Background CD4+ cells” value is 7.51, the “Maximum Fold Change Over Background CD8+ cells” value is recorded as 9.17, the “Maximum Frequency of TNFα/IFNγ Double Positive CD4+ T cells” value came to 0.053 and the “Maximum Frequency of TNFα/IFNγ Double Positive CD8+ T cells” value stood at 0.110. For the same sequence, in assay [2], the “Maximum Fold Change Over Background CD4+ cells” value is 1.90, the “Maximum Fold Change Over Background CD8+ cells” value is 4.09, the “Maximum Frequency of TNFα/IFNγ Double Positive CD4+ T cells” value was 0.046 and the “Maximum Frequency of TNFα/IFNγ Double Positive CD8+ T cells” value is 0.36.
Turning to “DGHSYTSKVNCLLLQDGFHGCVSITGAAGRRNLSIFLFLMLCKLEFHAC (listed as Homo sapiens) [AS55, SPOCK1 alternative splicing]”, in assay [1], the “Maximum Fold Change Over Background CD4+ cells” value is on record as 19.38, the “Maximum Fold Change Over Background CD8+ cells” value is 1354.17, the “Maximum Frequency of TNFα/IFNγ Double Positive CD4+ T cells” value stood at 0.310 and the “Maximum Frequency of TNFα/IFNγ Double Positive CD8+ T cells” value was 32.500. Also, in assay [2], the “Maximum Fold Change Over Background CD4+ cells” value came out at 3.50, the “Maximum Fold Change Over Background CD8+ cells” value is reported as 213.88, the “Maximum Frequency of TNFα/IFNγ Double Positive CD4+ T cells” value is listed as 0.063 and the “Maximum Frequency of TNFα/IFNγ Double Positive CD8+ T cells” value is 2.05.
